Test results as given in publication PMC8405091, “Microwave-assisted Phospha-Michael addition reactions in the 13α-oestrone series and in vitro antiproliferative properties” (Journal of Enzyme Inhibition and Medicinal Chemistry, 2021).

Key:
[1] = test system: non-cancerous mouse embryo fibroblast (NIH/3T3) cells; experiment: MTT assay on non-cancerous fibroblasts (tumour selectivity); type: cell-based; details: for Growth inhibition; % ± SEM: 72 h
Procedure: (§1) The antiproliferative properties of the newly synthesized compounds (9–20) and their starting materials (4 and 5) were determined on a panel of human adherent cancer cell lines. MCF-7, MDA-MB-231 and T47D were isolated from breast cancers differing in biochemical background, while A2780 cells were isolated from ovarian cancer. HeLa and SiHa are cervical cancer cell lines positive for HPV-18 and HPV-16, respectively, while C33-A cervical cancer cells are negative for HPV. Moreover, two oropharyngeal cancer cell lines were also utilized: the HPV-negative UPCI-SCC-131 and HPV-16 positive UPCI-SCC-154. The cancer selectivity of compounds was tested on the non-cancerous mouse embryo fibroblast cell line NIH/3T3. All cell lines were purchased from European Collection of Cell Cultures (ECCAC, Salisbury, UK) exception for SiHa and C33-A (American Tissue Culture Collection, Manassas, VA, USA) and HN-SCC-131 and UPCI-SCC-154 (German Collection of Microorganisms and Cell Cultures GmbH, Braunschweig, Germany). Cells were cultivated in minimal essential medium supplemented with 10% fetal bovine serum, 1% non-essential amino acids and an antibiotic–antimycotic mixture. The medium of oropharyngeal cancer cells additionally contained 2.0 mM L-glutamine. All media and supplements were obtained from Lonza Group Ltd., Basel, Switzerland. Near-confluent cancer cells were seeded onto a 96-well microplate at a density of 5,000 cells/well, except for C33-A which were seeded at 10,000/well. After overnight standing, new medium containing the tested compounds at 10 and 30 µM final concentration was added. After incubation for 72 h at 37 °C in humidified air containing 5% CO2, the living cells were assayed by the addition of 20 μL of 5 mg/ml 3-(4,5-dimethylthiazol-2-yl)-2,5-diphenyltetrazolium bromide (MTT) solution. MTT was converted by intact mitochondrial reductase and precipitated as purple crystals during a 4-h contact period. The medium was next removed and the precipitated formazan crystals were dissolved in 100 μL of DMSO during a 60-min period of shaking at 37 ^оC.
(§2) All in vitro experiments were carried out twice with five parallels. Stock solutions of the tested substances (10 mM) were prepared in DMSO. […] Cisplatin (Ebewe Pharma GmbH, Unterach, Austria) was used as positive control.

[2] = test system: C33-A cells; experiment: MTT antiproliferative assay, C33-A; type: cell-based, human; details: 72 h
Procedure: as §1, §2

[3] = test system: UPCI-SCC-154 cells; experiment: MTT antiproliferative assay, UPCI-SCC-154; type: cell-based, human
Procedure: as §1, §2

[4] = test system: UPCI-SCC-131 cells; experiment: MTT antiproliferative assay, UPCI-SCC-131; type: cell-based, human; details: for Growth inhibition; % ± SEM: 72 h
Procedure: as §1, §2

[5] = test system: MCF-7 cells; experiment: MTT antiproliferative assay, MCF-7; type: cell-based, human
Procedure: as §1, §2

[6] = test system: T47D cells; experiment: MTT antiproliferative assay, T47D; type: cell-based, human; details: 72 h
Procedure: as §1, §2

[7] = test system: SiHa cells; experiment: MTT antiproliferative assay, SiHa; type: cell-based, human; details: 72 h
Procedure: as §1, §2

[8] = test system: MDA-MB-231 cells; experiment: MTT antiproliferative assay, MDA-MB-231; type: cell-based, human; details: for Growth inhibition; % ± SEM: 72 h
Procedure: as §1, §2

[9] = test system: HeLa cells; experiment: MTT antiproliferative assay, HeLa; type: cell-based, human; details: 72 h
Procedure: as §1, §2

[10] = test system: A2780 cells; experiment: MTT antiproliferative assay, A2780; type: cell-based, human
Procedure: as §1, §2

[11] = read-out: calculated IC50 value
[12] = UPCI-SCC-154, 30 μM, 72 h, 30 µM
[13] = Homo sapiens, read-out: Growth inhibition, % ± SEM, 10 μM
[14] = Homo sapiens, MDA-MB-231, 72 h, read-out: Growth inhibition, % ± SEM

Row | Structure (SMILES) | Growth inhibition; % ± SEM ([2]; C33-A, 10 μM) | Growth inhibition; % ± SEM ([2]; C33-A, 30 μM) [%] | Growth inhibition; % ± SEM ([3]; UPCI-SCC-154, 10 μM, 72 h) | Growth inhibition; % ± SEM ([5]; MCF-7, 10 μM, 72 h) | Growth inhibition; % ± SEM ([5]; MCF-7, 30 μM, 72 h) | Growth inhibition; % ± SEM ([6]; 10 μM) | Growth inhibition; % ± SEM ([6]; 30 μM) | Growth inhibition; % ± SEM ([7]; 10 μM) | Growth inhibition; % ± SEM ([7]; 30 μM) | Growth inhibition; % ± SEM ([8]; MDA-MB-231, 10 μM) | Growth inhibition; % ± SEM ([8]; MDA-MB-231, 30 μM) | Growth inhibition; % ± SEM ([9]; 10 μM) | Growth inhibition; % ± SEM ([9]; 30 μM) | Growth inhibition; % ± SEM ([10]; A2780, 10 μM, 72 h) | Growth inhibition; % ± SEM ([10]; A2780, 30 μM, 72 h) | Growth inhibition; % ± SEM [3, 12] | Growth inhibition; % ± SEM ([4]; UPCI-SCC-131, 10 μM, 10 µM) | Growth inhibition; % ± SEM ([4]; UPCI-SCC-131, 30 μM, 30 µM) [%] | also measured
1 | N.N.[Cl][Pt][Cl] [CIS, Cisplatin, reference compound] | 85.98 ± 1.05% | 98.66 ± 0.21 | 87.40 ± 1.72% | 66.91 ± 1.81% | 96.80 ± 0.35% | 40.41 ± 1.25% | 56.84 ± 1.16% | 88.64 ± 0.50% | 90.18 ± 1.78% | – (Inhibition values <20% are not presented.) | 71.47 ± 1.20% | 42.61 ± 2.33% | 99.93 ± 0.26% | 83.6 ± 1.2% | 95.0 ± 0.3% |  |  |  | Growth inhibition; % ± SEM ([1]; NIH/3T3, 10 μM): 76.74 ± 1.26%; Growth inhibition; % ± SEM ([1]; NIH/3T3, 30 μM): 96.90 ± 0.25%; IC50 ([1]; NIH/3T3, 72 h, read-out: calculated IC50 value): 4.73 µM; IC50 ([2]; C33-A, read-out: calculated IC50 value): 4.13 µM; Growth inhibition; % ± SEM ([3]; UPCI-SCC-154, 30 μM, 72 h): 92.72 ± 1.67%; IC50 ([3]; UPCI-SCC-154, 72 h, read-out: calculated IC50 value): 1290 nM; Growth inhibition; % ± SEM ([4]; UPCI-SCC-131, 10 μM): 95.63 ± 1.49%; Growth inhibition; % ± SEM ([4]; UPCI-SCC-131, 30 μM): 95.09 ± 1.57%; IC50 ([4]; UPCI-SCC-131, 72 h, read-out: calculated IC50 value): 1220 nM; IC50 ([5]; MCF-7, 72 h, read-out: calculated IC50 value): 5.78 µM; IC50 [6, 11]: 19.2 µM; IC50 [7, 11]: 7.84 µM; IC50 ([8]; MDA-MB-231, 72 h, read-out: calculated IC50 value): 19.1 µM; IC50 [9, 11]: 12.4 µM; IC50 ([10]; A2780, 72 h, read-out: calculated IC50 value): 1300 nM
2 | COc1ccc2c(c1)CCC1C2CCC2(C)C(=O)C(CP(=O)(c3ccc4ccccc4c3)c3ccc4ccccc4c3)CC12 (stereo not drawn) [Compound 18, [(3-methoxy-17-oxo-13α-oestra-1,3,5(10)-trien-16β-yl)methyl]di(naphtalen-2-yl)phosphine oxide] | – (Inhibition values <20% are not presented.) | 20.25 ± 1.01 | – (Inhibition values <20% are not presented.) | – (Inhibition values <20% are not presented.) | – (Inhibition values <20% are not presented.) | – (Inhibition values <20% are not presented.) | – (Inhibition values <20% are not presented.) | – (Inhibition values <20% are not presented.) | – (Inhibition values <20% are not presented.) | – (Inhibition values <20% are not presented.) | – (Inhibition values <20% are not presented.) | – (Inhibition values <20% are not presented.) | – (Inhibition values <20% are not presented.) | – (Inhibition values <20% are not presented.) | – (Inhibition values <20% are not presented.) | – (Inhibition values <20% are not presented.) | 46.39 ± 1.19% | 64.55 ± 1.29 | 
3 | CC12CCC3c4ccc(OCc5ccccc5)cc4CCC3C1CC(CP(=O)(c1ccc3ccccc3c1)c1ccc3ccccc3c1)C2=O (stereo not drawn) [Compound 19, [(3-benzyloxy-17-oxo-13α-oestra-1,3,5(10)-trien-16α-yl)methyl]di(naphtalen-2-yl)phosphine oxide] |  |  |  |  |  |  |  |  | 40.30 ± 2.00% |  |  |  | 48.89 ± 0.90% |  |  | 48.81 ± 2.15% | – (Inhibition values <20% are not presented.) | 40.98 ± 2.94 | inhibition at 10 µM ([2]; Homo sapiens, C-33-A, read-out: Growth inhibition, % ± SEM, C33-A, 10 μM): 28.1 ± 1.39%; inhibition at 30 µM ([2]; Homo sapiens, C-33-A, read-out: Growth inhibition, % ± SEM, C33-A, 30 μM): 34.7 ± 1.7%; inhibition at 10 µM ([3]; Homo sapiens, 72 h, read-out: Growth inhibition, % ± SEM, UPCI-SCC-154, 10 μM, 72 h): 34.3 ± 2.8%; inhibition at 10 µM ([5]; Homo sapiens, MCF7, 72 h, read-out: Growth inhibition, % ± SEM, MCF-7, 10 μM, 72 h): 31.8 ± 2.47%; inhibition at 30 µM ([5]; Homo sapiens, MCF7, 72 h, read-out: Growth inhibition, % ± SEM, MCF-7, 30 μM, 72 h): 40.6 ± 1.71%; inhibition at 10 µM [6, 13]: 59.4 ± 2.44%; inhibition at 30 µM ([6]; Homo sapiens, read-out: Growth inhibition, % ± SEM, 30 μM): 62.4 ± 1.7%; inhibition at 10 µM [7, 13]: 23.2 ± 1.36%; inhibition at 10 µM [8, 14]: < 20%; inhibition at 30 µM [8, 14]: < 20%; inhibition at 10 µM [9, 13]: 31 ± 1.11%; inhibition at 10 µM ([10]; Homo sapiens, A2780, 72 h, read-out: Growth inhibition, % ± SEM, A2780, 10 μM, 72 h): < 20%; inhibition at 30 µM ([10]; Homo sapiens, A2780, 72 h, read-out: Growth inhibition, % ± SEM, A2780, 30 μM, 72 h): 28.5 ± 2.35%
4 | CC12CCC3c4ccc(OCc5ccccc5)cc4CCC3C1CC(CP(=O)(c1ccc3ccccc3c1)c1ccc3ccccc3c1)C2=O (stereo not drawn) [Compound 20, [(3-benzyloxy-17-oxo-13α-oestra-1,3,5(10)-trien-16β-yl)methyl]di(naphtalen-2-yl)phosphine oxide] | 27.94 ± 0.89% | 26.53 ± 1.06 |  |  |  | 66.09 ± 0.76% | 68.56 ± 1.81% | – (Inhibition values <20% are not presented.) | – (Inhibition values <20% are not presented.) | – (Inhibition values <20% are not presented.) | – (Inhibition values <20% are not presented.) | – (Inhibition values <20% are not presented.) | – (Inhibition values <20% are not presented.) | – (Inhibition values <20% are not presented.) |  | 28.72 ± 1.11% | 48.25 ± 1.46% | 61.12 ± 1.32 | Growth inhibition; % ± SEM ([3]; UPCI-SCC-154, 10 μM, 72 h, 10 µM): 30.97 ± 2.54%; Growth inhibition; % ± SEM ([5]; MCF-7, 10 μM, 72 h, 10 µM): 28.24 ± 1.66%; Growth inhibition; % ± SEM ([5]; MCF-7, 30 μM, 72 h, 30 µM): 22.21 ± 2.78%; Growth inhibition; % ± SEM ([10]; A2780, 30 μM, 72 h, 30 µM): – (Inhibition values <20% are not presented.)
